Results on three molecules are retold here after article PMC8584173, “The Cytotoxic Effect of Copper (II) Complexes with Halogenated 1,3-Disubstituted Arylthioureas on Cancer and Bacterial Cells” (International Journal of Molecular Sciences, 2021).

For orientation: MIC means the least concentration at which growth counts as inhibited. The term IC50 denotes the point on the concentration scale where inhibition reaches its midpoint.

The subject of series [1] is C. parapsilosis ATCC 22019. Nature of the series: MIC, twofold serial microdilution. Type of series: cell-based, Candida parapsilosis. Particulars: C. parapsilosis ATCC 22019, 24 h, 35 °C. The procedure: (§1) The antimicrobial activity of the compounds was tested on Gram-positive bacteria (Staphylococcus aureus NCTC 4163, Staphylococcus aureus ATCC 25923, Staphylococcus aureus ATCC 6538, Staphylococcus aureus ATCC 29213, Staphylococcus epidermidis ATCC 12228, Staphylococcus epidermidis ATCC 35984), Gram-negative rods (Escherichia coli ATCC 10538, Escherichia coli ATCC 25922, Pseudomonas aeruginosa ATCC 15442, Pseudomonas aeruginosa ATCC 27863) and yeasts (Candida albicans ATCC 10231, Candida albicans ATCC 90028, Candida parapsilosis ATCC 22019). Hospital methicillin-resistant strains of Staphylococcus aureus and Staphylococcus epidermidis were obtained from the collection of the Department of Pharmaceutical Microbiology, Medical University of Warsaw, Poland.
(§2) Antifungal activities were assessed using Mueller–Hinton agar + 2% glucose and 0.5 µg/mL methylene blue dye medium. Sterile filter paper discs (9 mm diameter, Whatman Number 3 chromatography paper) were dripped with tested compound solutions (in dimethylsulfoxide, DMSO) to load 400 μg of a given compound per disc. Dry discs were placed on the surface of appropriate agar medium. The results (diameter of the growth inhibition zone) were read after 18 h of incubation at 35 °C. Minimal inhibitory concentration (MIC) was tested by the twofold serial microdilution method (in 96-well microtiter plates) using Mueller–Hinton broth medium (Beckton Dickinson) for bacteria or RPMI-1640 medium for Candida species, according to CLSI guidelines. The stock solution of tested agent was prepared in DMSO and diluted in sterile water. […] The final inoculum of all studied microorganisms was 10^5 CFU/ mL^−1 (colony forming units per ml). Minimal inhibitory concentrations (the lowest concentration of a tested agent that prevents visible growth of a microorganism) were read after 18 h (bacteria) or 24 h (yeasts) of incubation at 35 °C.
Background: Broth dilution looks for growth in wells or tubes with falling amounts of substance.

A further series relates to S. aureus ATCC 29213. Nature of the series: MIC, twofold serial microdilution. The series is classed as cell-based, Staphylococcus aureus. The note with it: S. aureus ATCC 29213, 18 h, 35 °C. The procedure: as §1, §2
The test system of the next series is S. aureus ATCC 6538. Nature of the series: MIC, twofold serial microdilution. Type of series: cell-based, Staphylococcus aureus. Particulars: S. aureus ATCC 6538, 18 h, 35 °C. The procedure: as §1, §2
In a further series the test system is S. aureus NCTC 4163. Nature of the series: MIC, twofold serial microdilution. The series is classed as cell-based, Staphylococcus aureus. Particulars: S. aureus NCTC 4163, 18 h, 35 °C. The procedure: as §1, §2
The next series relates to S. aureus ATCC 25923. Nature of the series: MIC, twofold serial microdilution. The series is classed as cell-based, Staphylococcus aureus. Particulars: S. aureus ATCC 25923, 18 h, 35 °C. The procedure: as §1, §2
Series [2] has as its system PC3 (human metastatic prostate cancer). The series is described as follows: MTT cytotoxicity assay, PC3. Type of series: cell-based. Particulars: for IC50: PC3, 72 h, MTT; for fold more active than cisplatin: PC3 cell lines. The procedure:
(§3) The human primary (SW480), metastatic (SW620) colon cancer, metastatic prostate cancer (PC3) and human immortal keratinocyte (HaCaT) cell lines were purchased from the American Type Culture Collection (ATCC, Rockville, USA). The cells were cultured in medium according to protocols (MEM for SW480 and SW620, RPMI 1640 for PC3 and DMEM for HaCaT cells) supplemented with 10% fetal bovine serum (FBS), penicillin (100 U/mL) and streptomycin (100 μg/mL) and cultured in 37 °C/ 5% CO2 humidified incubator. The cells were cultured until appropriate confluence was achieved (80–90%). Next, they were harvested by treatment with 0.25% trypsin (Gibco Life Technologies, USA) and used for studies.
(§4) Cells without studied compounds in medium were used as a control.
(§5) The cell viability was assessed by determination of MTT salt (3-(4,5-dimethylthiazol-2-yl)-2,5-diphenyltetrazolium bromide) conversion by mitochondrial dehydrogenase. MTT assay was performed as previously described. Experiments were repeated three times. Cell viability was presented as a percentage of MTT reduction in the treated cells versus the control cells. Number of viable cells cultured without studied compounds was assumed to be 100%. Decreased relative MTT level means decreased cell viability. Thiourea complexes with the highest cytotoxic potential assessed by MTT determination (with the lowest IC50) were chosen for subsequent assessments of cytotoxicity mechanisms.
On the technique in general: Tetrazolium assays rely on reduction of a dye to a coloured formazan, in cell work by metabolically active cells.

For series [3], the system named is Bacillus subtilis H17 (rec+). Nature of the series: Bacillus subtilis rec-assay, H17. Type of series: cell-based. The note with it: B. subtilis H17; 256 µg per disc (NOQ 2 µg per disc). The procedure:
DNA-damaging activity of compounds was tested by rec-assay using two genetically modified Bacillus subtilis strains: M45 (rec^−) and H17 (rec^+). Tested compounds were dissolved in DMSO, and 10 µL of each solution was dripped onto sterile cotton discs (Rotilabo) to load 256 µg of a given compound per 9 mm disc. Discs were placed on the surface nutrient agar plates (Difco), inoculated with 100 µL of bacterial overnight culture and incubated […] at 35 °C. After incubation, the growth inhibition zones were measured. […] Results of the genotoxicity test were estimated after 18 h of incubation at 35 °C by comparing the diameter of the inhibition zone on the B. subtilis M45 (rec^−) strain with that on the B. subtilis H17 (rec^+) strain.

For the next series, the system named is E. coli NCTC 10538. Nature of the series: MIC, twofold serial microdilution. The series is classed as cell-based, Escherichia coli. The note with it: E. coli NCTC 10538, 18 h, 35 °C. The procedure: as §1, §2
A further series has as its system E. coli ATCC 25922. The series is described as follows: MIC, twofold serial microdilution. Particulars: E. coli ATCC 25922, 18 h, 35 °C. The series is classed as cell-based, Escherichia coli. The procedure: as §1, §2
In series [4] the test system is HaCaT (human immortal keratinocyte cell line). Nature of the series: MTT cytotoxicity assay, HaCaT. Type of series: cell-based. The note with it: HaCaT normal cells, 72 h. The procedure: as §3, §4, §5
Series [5] relates to SW620 (human metastatic colon cancer). Nature of the series: MTT cytotoxicity assay, SW620. Type of series: cell-based. The note with it: SW620, 72 h. The procedure:
as §3, §4
The cell viability was assessed by determination of MTT salt (3-(4,5-dimethylthiazol-2-yl)-2,5-diphenyltetrazolium bromide) conversion by mitochondrial dehydrogenase. MTT assay was performed as previously described. Experiments were repeated three times. Cell viability was presented as a percentage of MTT reduction in the treated cells versus the control cells. Number of viable cells cultured without studied compounds was assumed to be 100%. Decreased relative MTT level means decreased cell viability.

The next series relates to C. albicans ATCC 10231. The series is described as follows: MIC, twofold serial microdilution. Type of series: cell-based, Candida albicans. Particulars: C. albicans ATCC 10231, 24 h, 35 °C. The procedure: as §1, §2
The test system of the next series is C. albicans ATCC 90028. Nature of the series: MIC, twofold serial microdilution. The series is classed as cell-based, Candida albicans. Particulars: C. albicans ATCC 90028, 24 h, 35 °C. The procedure: as §1, §2
The test system of series [6] is S. epidermidis ATCC 12228. Nature of the series: MIC, twofold serial microdilution. Particulars: S. epidermidis ATCC 12228, 18 h, 35 °C. The series is classed as cell-based, Staphylococcus epidermidis. The procedure: as §1, §2
Series [7] relates to S. epidermidis ATCC 35984. The series is described as follows: MIC, twofold serial microdilution. Type of series: cell-based, Staphylococcus epidermidis. Particulars: S. epidermidis ATCC 35984, 18 h, 35 °C. The procedure: as §1, §2

SMILES strings stand for the structures.

On to `O=[N+]([O-])c1cc([N+]2=C(Nc3ccc(Br)cc3)[S][Cu-2]23[S]C(Nc2ccc(Br)cc2)=[N+]3c2ccc(Cl)c([N+](=O)[O-])c2)ccc1Cl` [Compound 3, Copper (II) complex with 1-(4-bromophenyl)-3-(4-chloro-3-nitrophenyl)thiourea], for which the minimal inhibitory concentration (MIC) in series [1] worked out at 64 mg/L; in the series with S. aureus ATCC 29213, 16 mg/L; with S. aureus ATCC 6538, 8 mg/L; against S. aureus NCTC 4163 it was 8 mg/L; in the series with S. aureus ATCC 25923, 8 mg/L; in the series on E. coli NCTC 10538, 128 mg/L. In addition, the MIC is greater than 256 mg/L in the series on E. coli ATCC 25922; 64 mg/L against C. albicans ATCC 10231; 64 mg/L with C. albicans ATCC 90028; 16 mg/L in [6]; 16 mg/L in [7]. Also, the IC50 in [2] was 8.8 ± 0.8 µM; in series [4] it was 103 ± 3.2 µM; in series [5], 19.2 ± 2.3 µM. The “fold more active than cisplatin” value in [2] is given as 1.2–3.1 fold. The molecule further had an inhibition zone diameter in series [3] of 15 mm.

For `O=[N+]([O-])c1cc([N+]2=C(Nc3ccc(Cl)c(Cl)c3)[S][Cu-2]23[S]C(Nc2ccc(Cl)c(Cl)c2)=[N+]3c2ccc(Cl)c([N+](=O)[O-])c2)ccc1Cl` [Compound 5, Copper (II) complex with 1-(4-chloro-3-nitrophenyl)-3-(3,4-dichlorophenyl)thiourea], the MIC amounted to 64 mg/L in series [1]; 32 mg/L against S. aureus ATCC 29213; 32 mg/L against S. aureus ATCC 6538; 32 mg/L with S. aureus NCTC 4163; 32 mg/L against S. aureus ATCC 25923; 128 mg/L in the series on E. coli NCTC 10538. The MIC with E. coli ATCC 25922 came out at 128 mg/L; with C. albicans ATCC 10231, 128 mg/L; against C. albicans ATCC 90028 it was 128 mg/L; in [6] it was 32 mg/L; in series [7], 32 mg/L. The IC50 in series [2] came out at 11.4 ± 2.4 µM; in series [4] it was 165 ± 4.7 µM; in series [5], 10.8 ± 2.6 µM. Besides, in [2], the “fold more active than cisplatin” value is 1.2–3.1 fold. The same molecule showed an inhibition zone diameter in [3] of 17 mm.

On to `O=[N+]([O-])c1cc([N+]2=C(Nc3ccccc3Br)[S][Cu-2]23[S]C(Nc2ccccc2Br)=[N+]3c2ccc(Cl)c([N+](=O)[O-])c2)ccc1Cl` [Compound 1, Copper (II) complex with 1-(2-bromophenyl)-3-(4-chloro-3-nitrophenyl)thiourea], for which the MIC in series [1] was no less than 256 mg/L; in the series with S. aureus ATCC 29213 it was 8 mg/L; in the series with S. aureus ATCC 6538, 8 mg/L; against S. aureus NCTC 4163 it was 8 mg/L; with S. aureus ATCC 25923, 8 mg/L; against E. coli NCTC 10538 it was 128 mg/L. For the same molecule, the MIC in the series with E. coli ATCC 25922 was 256 mg/L; against C. albicans ATCC 10231, no less than 256 mg/L; in the series on C. albicans ATCC 90028, no less than 256 mg/L; in series [6], 16 mg/L; in series [7] it was 8 mg/L. In addition, the IC50 in series [2] is 9.7 ± 0.1 µM; in series [4], 110 ± 3.4 µM; in series [5], 3.3 ± 0.2 µM. For the same molecule, the “fold more active than cisplatin” value in series [2] is reported as 1.2–3.1 fold. This molecule had an inhibition zone diameter in [3] of 12 mm.
